These are literature values, as cited in patent US6350444B1, “Gene therapy for pulmonary edema using adenovirus vectors encoding Na,K-ATPase” (Edema Clearance, Inc., priority 1998, dated 2002).

The subject of data set [1] is isolated rat lungs.
The target in data set [2] is rat α1 subunit (Rattus norvegicus, UniProt P06685). Conditions: read-out: IC50 of ouabain.

Take `N=C(N)NC(=O)c1nc(Cl)c(N)nc1N` [amiloride]: the lung liquid clearance result in data set [1] is “decreased”. As to `C[C@@H]1O[C@@H](O[C@H]2C[C@@H](O)[C@]3(CO)[C@H]4[C@H](O)C[C@]5(C)[C@@H](C6=CC(=O)OC6)CC[C@]5(O)[C@@H]4CC[C@]3(O)C2)[C@H](O)[C@H](O)[C@H]1O` [ouabain], in data set [2], the IC50 was 1000 µM. For the same molecule, the lung liquid clearance entry in data set [1] is “decreased”.
